Test results reported in the NIST ThermoML archive (doi:10.1016/j.jct.2015.08.014).

Assay: xn = mol fraction of the nth substance listed
Conditions: 323.15 K, 100 kPa, Liquid, Alternating current cell with electrodes

CCCC[N+]1(C)CCCC1.N#CN=C=[N-] [1-butyl-1-methylpyrrolidinium dicyanamide] + O=C1CCCO1
electrical conductivity [S/m]
Conditions | Frequency=0.001 MHz | Frequency=0.0015 MHz | Frequency=0.002 MHz | Frequency=0.0025 MHz | Frequency=0.003 MHz | Frequency=0.00347222 MHz | Frequency=0.004 MHz | Frequency=0.00446429 MHz | Frequency=0.005 MHz | Frequency=0.005454 MHz
x1 = 0.0463 | – | 2 | 2 | 2.01 | 2.01 | 2.01 | 2.01 | 2.01 | 2.01 | 2.01
x1 = 0.0987 | 3.06 | 3.07 | 3.07 | 3.07 | 3.08 | 3.08 | 3.08 | 3.08 | 3.08 | 3.08
x1 = 0.1449 | 3.56 | 3.56 | 3.56 | 3.56 | 3.56 | 3.57 | 3.57 | 3.57 | 3.57 | 3.57
x1 = 0.1859 | 3.83 | 3.84 | 3.84 | 3.85 | 3.85 | 3.85 | 3.85 | 3.85 | 3.85 | 3.85
x1 = 0.2493 | 3.89 | 3.89 | 3.89 | 3.89 | 3.89 | 3.89 | 3.89 | 3.89 | 3.89 | 3.89
x1 = 0.3029 | 3.86 | 3.87 | 3.87 | 3.87 | 3.87 | 3.87 | 3.87 | 3.87 | 3.87 | 3.88
x1 = 0.3845 | 3.732 | 3.73 | 3.74 | 3.74 | 3.74 | 3.74 | 3.74 | 3.74 | 3.74 | 3.74
x1 = 0.4985 | 3.46 | 3.46 | 3.46 | 3.46 | 3.46 | 3.46 | 3.46 | 3.46 | 3.46 | 3.46
x1 = 0.6954 | 2.99 | 2.99 | 2.99 | 2.99 | 2.99 | 2.99 | 2.99 | 2.99 | 2.99 | 2.99
x1 = 0.9013 | 2.626 | 2.628 | 2.63 | 2.63 | 2.631 | 2.632 | 2.632 | 2.632 | 2.633 | –
x1 = 1 | 2.526 | 2.527 | 2.528 | 2.528 | 2.528 | 2.528 | 2.529 | 2.529 | 2.529 | –
